According to US20240165123A1, “USE OF A COMPOUND CONTAINING A TRICYCLIC HETEROARYL GROUP” (CSPC Zhongqi Pharmaceutical Technology (Shijiazhuang) Co., …, priority 2021, published 2024):

Legend:
[1] = Rat effective dose for safety window calculation; format: in vivo
JAK3 = biological target: T1, JAK3 (Homo sapiens, UniProt P52333); experiment: Kinase activity inhibition test (Mobility Shift Assay); format: biochemical; conditions: 4.3 μM ATP
T1 sequence (P52333 1-1124): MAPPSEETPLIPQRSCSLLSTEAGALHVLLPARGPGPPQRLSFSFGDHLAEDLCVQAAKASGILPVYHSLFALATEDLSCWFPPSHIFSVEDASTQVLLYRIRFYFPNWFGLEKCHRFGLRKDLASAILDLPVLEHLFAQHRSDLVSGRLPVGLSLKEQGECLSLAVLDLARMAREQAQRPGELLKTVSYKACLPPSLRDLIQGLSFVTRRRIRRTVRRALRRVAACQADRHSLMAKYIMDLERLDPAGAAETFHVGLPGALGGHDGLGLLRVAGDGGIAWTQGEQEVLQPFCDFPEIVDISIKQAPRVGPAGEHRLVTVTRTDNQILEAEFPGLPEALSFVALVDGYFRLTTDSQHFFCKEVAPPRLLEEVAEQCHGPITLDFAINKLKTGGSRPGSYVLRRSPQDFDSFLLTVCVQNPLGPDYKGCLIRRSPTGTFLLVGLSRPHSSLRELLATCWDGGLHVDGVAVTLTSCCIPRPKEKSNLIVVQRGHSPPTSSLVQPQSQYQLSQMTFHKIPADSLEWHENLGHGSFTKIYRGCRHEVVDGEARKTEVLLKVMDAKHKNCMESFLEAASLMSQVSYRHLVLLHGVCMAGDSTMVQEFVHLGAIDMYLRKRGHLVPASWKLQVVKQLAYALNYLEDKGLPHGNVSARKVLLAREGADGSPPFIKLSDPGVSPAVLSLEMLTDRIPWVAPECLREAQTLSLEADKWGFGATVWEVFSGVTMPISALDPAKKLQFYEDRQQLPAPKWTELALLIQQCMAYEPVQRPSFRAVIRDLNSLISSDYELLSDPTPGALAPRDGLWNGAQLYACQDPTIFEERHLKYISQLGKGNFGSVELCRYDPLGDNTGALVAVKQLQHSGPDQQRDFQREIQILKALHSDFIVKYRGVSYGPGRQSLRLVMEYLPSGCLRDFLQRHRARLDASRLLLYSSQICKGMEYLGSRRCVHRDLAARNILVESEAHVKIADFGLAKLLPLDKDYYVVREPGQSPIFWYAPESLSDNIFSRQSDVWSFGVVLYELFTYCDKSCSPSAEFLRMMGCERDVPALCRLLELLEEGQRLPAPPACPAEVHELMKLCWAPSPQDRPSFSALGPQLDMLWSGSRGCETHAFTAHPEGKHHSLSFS
Method: (§1) • 1. kinases: SYK, JAK1, JAK2, JAK3 and TYK2 • 2. test method
(§2) Protein kinase activity was determined by Mobility Shift Assay. Compound (I) was dissolved in DMSO and prepared into concentration gradients in 100% DMSO. By the dilution with the kinase buffer, 5 μL of Compound (I) (10% DMSO) was added to a 384-well plate at 5 folds of the final reaction concentration. 10 μL of 2.5-fold enzyme solution was added and the incubation was performed at room temperature for 10 min, followed by the addition of 10 μL of 2.5-fold substrate solution. The incubation was performed at 28° C. for 60 min and […] of stop solution was added to the 384-well reaction plate to terminate the reaction (100 mM HEPES, pH 7.5, 0.015% Brij-35, 0.2% Coating Reagent #3, 50 mM EDTA). The conversion data was copied from the Caliper EZ Reader, and converted into the inhibition data, % inhibition=(max-conversion)/(max-min)×100%, wherein, “min” is the conversion for the control sample well where the reaction was performed without adding the enzyme; and “max” is the conversion for the control well where DMSO was added. The curve was drawn with the compound concentration and the inhibition rate as the horizontal and vertical is coordinates, and the IC50 value was calculated by fitting with XLFit excel add-in version 5.4.0.8. Fitting equation:
(§3) Y=Bottom+(Top-Bottom)/(1+(IC50/X)^HillSlope).

TYK2 = TYK2 (Homo sapiens, UniProt P29597); experiment: as above; format: biochemical; conditions: 16 μM ATP
Chain of TYK2 (P29597 whole entry, species assumed): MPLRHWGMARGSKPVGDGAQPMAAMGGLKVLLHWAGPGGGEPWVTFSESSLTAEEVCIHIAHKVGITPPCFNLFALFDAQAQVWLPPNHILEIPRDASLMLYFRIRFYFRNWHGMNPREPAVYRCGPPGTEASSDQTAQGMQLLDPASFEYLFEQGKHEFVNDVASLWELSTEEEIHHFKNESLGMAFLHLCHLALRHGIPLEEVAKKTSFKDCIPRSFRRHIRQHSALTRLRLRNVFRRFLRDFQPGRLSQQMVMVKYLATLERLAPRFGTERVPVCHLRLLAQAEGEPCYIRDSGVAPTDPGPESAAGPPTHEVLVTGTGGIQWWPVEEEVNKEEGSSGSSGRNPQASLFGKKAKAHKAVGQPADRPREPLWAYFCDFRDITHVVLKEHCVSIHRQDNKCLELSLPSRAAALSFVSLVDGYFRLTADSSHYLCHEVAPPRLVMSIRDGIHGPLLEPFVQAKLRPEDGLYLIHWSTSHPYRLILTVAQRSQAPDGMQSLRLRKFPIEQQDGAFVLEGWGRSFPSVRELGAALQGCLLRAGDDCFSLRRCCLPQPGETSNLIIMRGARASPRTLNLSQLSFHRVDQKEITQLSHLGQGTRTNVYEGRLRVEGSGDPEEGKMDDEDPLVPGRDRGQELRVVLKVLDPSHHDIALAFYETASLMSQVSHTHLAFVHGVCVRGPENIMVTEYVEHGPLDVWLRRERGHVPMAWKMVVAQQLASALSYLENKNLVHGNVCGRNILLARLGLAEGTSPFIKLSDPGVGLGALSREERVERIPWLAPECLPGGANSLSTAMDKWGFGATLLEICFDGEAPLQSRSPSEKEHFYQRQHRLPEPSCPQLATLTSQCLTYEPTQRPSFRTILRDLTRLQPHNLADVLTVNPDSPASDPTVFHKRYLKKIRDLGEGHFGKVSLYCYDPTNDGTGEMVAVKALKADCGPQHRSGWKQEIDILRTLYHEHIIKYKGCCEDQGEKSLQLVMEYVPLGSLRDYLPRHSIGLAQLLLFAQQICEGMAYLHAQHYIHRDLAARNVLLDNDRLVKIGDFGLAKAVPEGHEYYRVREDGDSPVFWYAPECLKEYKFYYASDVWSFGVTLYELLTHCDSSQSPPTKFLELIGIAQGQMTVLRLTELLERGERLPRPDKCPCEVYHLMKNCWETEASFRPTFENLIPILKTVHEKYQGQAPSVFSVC
Method: as §1, §2, §3

JAK2 = JAK2 (Homo sapiens, UniProt O60674); experiment: as above; format: biochemical; conditions: 6.5 μM ATP
Chain of JAK2 (O60674 whole entry, species assumed): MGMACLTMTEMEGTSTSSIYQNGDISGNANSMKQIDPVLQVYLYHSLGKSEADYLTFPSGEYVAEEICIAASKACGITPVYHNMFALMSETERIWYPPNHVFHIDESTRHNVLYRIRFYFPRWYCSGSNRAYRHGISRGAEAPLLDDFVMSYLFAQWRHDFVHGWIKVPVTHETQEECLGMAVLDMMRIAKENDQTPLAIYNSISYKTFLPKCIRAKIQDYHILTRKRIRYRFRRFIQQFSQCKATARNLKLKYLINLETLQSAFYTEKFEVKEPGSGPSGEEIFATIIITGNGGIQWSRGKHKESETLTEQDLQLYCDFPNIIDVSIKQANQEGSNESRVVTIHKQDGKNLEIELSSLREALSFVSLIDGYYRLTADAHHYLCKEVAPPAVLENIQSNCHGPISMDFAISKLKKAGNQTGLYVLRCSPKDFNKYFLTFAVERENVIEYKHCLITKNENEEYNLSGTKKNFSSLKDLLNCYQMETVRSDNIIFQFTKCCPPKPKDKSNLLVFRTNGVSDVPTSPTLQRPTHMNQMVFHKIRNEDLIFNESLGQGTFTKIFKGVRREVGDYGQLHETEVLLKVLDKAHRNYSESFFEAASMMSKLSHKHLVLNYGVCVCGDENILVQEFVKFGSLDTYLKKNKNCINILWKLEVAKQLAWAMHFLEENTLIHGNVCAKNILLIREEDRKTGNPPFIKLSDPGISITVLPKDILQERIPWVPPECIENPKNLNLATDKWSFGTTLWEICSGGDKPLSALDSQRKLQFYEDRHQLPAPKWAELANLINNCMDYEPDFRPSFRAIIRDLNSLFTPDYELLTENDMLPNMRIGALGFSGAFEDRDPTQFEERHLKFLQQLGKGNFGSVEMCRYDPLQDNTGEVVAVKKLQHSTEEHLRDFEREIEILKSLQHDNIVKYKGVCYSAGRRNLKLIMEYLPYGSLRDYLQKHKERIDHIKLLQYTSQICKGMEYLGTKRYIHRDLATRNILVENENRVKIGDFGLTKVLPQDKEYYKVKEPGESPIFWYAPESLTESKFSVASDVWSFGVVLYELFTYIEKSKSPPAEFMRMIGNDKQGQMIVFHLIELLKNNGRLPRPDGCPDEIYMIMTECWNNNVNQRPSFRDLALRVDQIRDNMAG
Method: as §1, §2, §3

NC(=O)c1cnc(Nc2ccc3c(c2)OC[C@H]2CN(S(=O)(=O)C4CC4)CCN32)nc1NC1CC1 [Compound (I), (R)-4-(cyclopropylamino)-2-((3-(cyclopropylsulfonyl)-1,2,3,4,4a,5-hexahydrobenzo[b]pyrazolo[1,2-d][1,4]oxazin-8-yl)amino)pyrimidine-5-arboxamide]
AUC ([1]; in vivo, rat effective dose 3 mg/kg/time BID): 4.31 µg·h/mL
Safety window, dose method ([1]; rat effective dose (reference)): 1 fold
Effective dose for rats ([1]; rats): 3 mg/kg/time bid
IC50 (JAK3): 1.43 nM
IC50 (TYK2): 0.82 nM
IC50 (JAK2): 3.92 nM
